Literature values as cited in US6964953B2, “Methods for treating stress disorders using glucocorticoid receptor-specific antagonists” (Corcept Therapeutics, Inc., priority 2001, dated 2005).

Assays:
[1] = system: mouse hippocampus neuronal cells; details: Behl et al. 1997
progesterone receptor = target: T1, progesterone receptor (Homo sapiens, UniProt P06401); details: result in words
T1 sequence (P06401 1-933): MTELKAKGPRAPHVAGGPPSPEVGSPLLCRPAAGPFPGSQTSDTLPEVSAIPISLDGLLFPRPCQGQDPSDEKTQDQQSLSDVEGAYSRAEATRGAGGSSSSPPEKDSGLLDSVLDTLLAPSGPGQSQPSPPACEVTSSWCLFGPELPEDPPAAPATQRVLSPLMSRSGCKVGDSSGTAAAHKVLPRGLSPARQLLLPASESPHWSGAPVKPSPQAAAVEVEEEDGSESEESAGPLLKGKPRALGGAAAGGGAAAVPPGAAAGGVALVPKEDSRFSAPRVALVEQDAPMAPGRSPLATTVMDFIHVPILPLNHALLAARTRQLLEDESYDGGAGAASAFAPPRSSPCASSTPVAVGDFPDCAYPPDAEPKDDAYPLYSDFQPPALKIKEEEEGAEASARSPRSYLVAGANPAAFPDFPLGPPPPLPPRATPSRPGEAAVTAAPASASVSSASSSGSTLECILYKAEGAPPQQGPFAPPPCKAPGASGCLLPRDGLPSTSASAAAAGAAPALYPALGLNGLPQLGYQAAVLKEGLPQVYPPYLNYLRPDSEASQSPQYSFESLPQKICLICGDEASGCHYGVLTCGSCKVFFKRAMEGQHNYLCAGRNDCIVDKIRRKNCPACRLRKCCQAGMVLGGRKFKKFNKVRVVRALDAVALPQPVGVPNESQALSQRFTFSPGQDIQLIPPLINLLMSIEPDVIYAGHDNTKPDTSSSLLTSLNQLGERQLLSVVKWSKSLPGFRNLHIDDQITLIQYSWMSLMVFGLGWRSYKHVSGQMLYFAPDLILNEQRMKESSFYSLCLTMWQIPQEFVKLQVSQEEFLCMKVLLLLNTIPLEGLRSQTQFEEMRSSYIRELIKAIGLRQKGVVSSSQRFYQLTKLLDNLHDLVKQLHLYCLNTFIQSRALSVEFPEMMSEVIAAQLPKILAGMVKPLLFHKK

rat hippocampus = details: Talmi et al. 1996
[2] = target: T2, glucocorticoid (GR) receptor (Homo sapiens, UniProt P04150); details: result in words
T2 sequence (P04150 1-777): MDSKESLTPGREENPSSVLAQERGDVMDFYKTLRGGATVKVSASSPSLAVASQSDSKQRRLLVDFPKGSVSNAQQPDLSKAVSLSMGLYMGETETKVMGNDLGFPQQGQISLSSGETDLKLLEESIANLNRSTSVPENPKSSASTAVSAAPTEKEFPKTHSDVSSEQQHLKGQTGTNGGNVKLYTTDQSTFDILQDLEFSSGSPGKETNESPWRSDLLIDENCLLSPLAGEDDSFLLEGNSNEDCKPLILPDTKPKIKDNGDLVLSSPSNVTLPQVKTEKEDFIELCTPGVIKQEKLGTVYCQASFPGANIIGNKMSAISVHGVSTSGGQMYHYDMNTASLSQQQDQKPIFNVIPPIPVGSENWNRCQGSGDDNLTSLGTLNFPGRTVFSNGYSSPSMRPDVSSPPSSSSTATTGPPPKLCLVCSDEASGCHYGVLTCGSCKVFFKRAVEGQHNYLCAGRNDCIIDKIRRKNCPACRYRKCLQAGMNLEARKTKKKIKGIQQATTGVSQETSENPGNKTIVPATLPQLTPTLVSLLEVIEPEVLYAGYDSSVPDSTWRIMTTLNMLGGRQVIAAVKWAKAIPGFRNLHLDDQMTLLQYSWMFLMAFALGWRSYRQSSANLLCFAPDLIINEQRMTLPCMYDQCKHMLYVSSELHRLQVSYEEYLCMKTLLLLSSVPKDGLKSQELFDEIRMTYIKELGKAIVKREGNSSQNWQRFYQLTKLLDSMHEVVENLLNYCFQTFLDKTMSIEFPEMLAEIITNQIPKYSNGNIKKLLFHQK

[3] = in one study; Kawai (1989)

SMILES	protection against oxidative stress-induced neuronal cell death [1]	progesterone receptor antagonist activity (progesterone receptor)	abrogation of age-associated electrophysiological changes (rat hippocampus)	GR antagonist activity [2]	daily dose excreted in the urine [3]
CC#C[C@]1(O)CC[C@H]2[C@@H]3CCC4=CC(=O)CCC4=C3[C@@H](c3ccc(N(C)C)cc3)C[C@@]21C [Mifepristone, 17-beta-hydroxy-11-beta-(4-dimethyl-aminophenyl)-17-alpha-(1-propynyl)-estra-4,9-dien-3-one]	providing protection against oxidative stress-induced neuronal cell death	powerful antagonist	effective at abrogating some of the age-associated electrophysiological changes	powerful antagonist	less than 0.5%
CC#C[C@]1(O)CC[C@H]2[C@@H]3CCC4=CC(=O)CCC4=C3[C@@H](c3ccc(OCCN(C)C)cc3)C[C@@]21C [RU009, 11-beta-(4-dimethyl-aminoethoxyphenyl)-17-alpha-(propynyl-17 beta-hydroxy-4,9-estradien-3-one)]	–	–	–	shown to have GR antagonist effects	–
